Source: patent US10525055B2, “Opioid receptor antagonist prodrugs” (Nirsum Laboratories, Inc., priority 2017, dated 2020)

Legend:
[1] = Solubility determination in oil (cottonseed oil, sesame oil)
Method: A known amount of test substance (˜40 mg) was weighed into the vial, 100 μL of oil was added and heated to 60° C. and then system was slurried to reach equilibrium. […] Extra oil was added into the vial once compound precipitated out and then the system was re-equilibrated at 1000 rpm at room temperature (25° C.). Final concentration was determined by HPLC method as described below in Table 6a and 6b.

[2] = Plasma stability assay, rat plasma; assay type: in vitro ADME; settings: 37° C., 10 μM
Method: Plasma stability determination of the test compounds in rat, dog, cynomolgus monkey and human plasma is performed using HPLC-MS. For rat, incubations are carried out in 96-well polypropylene plates in 5 aliquots of 70 μL each (one for each time point). […] Five time points are analyzed (0, 15, 120, 480 and 1440 min). For dog, monkey and human, test compounds (2 μM, final solvent concentration 1%) were also incubated at 37° C. and analyzed at five time points (0, 10, 30, 60 and 120 min). All incubations are performed in duplicates. The samples are analyzed by HPLC-MS. The percentage of parent compound remaining after incubation in plasma is determined.

[3] = heating temp. 40 °C, obs. temp. 40 °C
[4] = heating temp. 60 °C, obs. temp. 40 °C
[5] = heating temp. 60 °C, obs. temp. 25 °C

C=C1CC[C@@]2(O)C3Cc4ccc(OC(=O)CCCCCCC/C=C\C/C=C\C/C=C\CC)c5c4[C@@]2(CCN3CC2CC2)[C@H]1O5 [Compound 20, (4aS,7aS,12bS)-3-(cyclopropylmethyl)-4a-hydroxy-7-methylene-2,3,4,4a,5,6,7,7a-octahydro-1H-4,12-methanobenzofuro[3,2-e]isoquinolin-9-yl (9Z,12Z,15Z)-octadeca-9,12,15-trienoate]
Approximate Solubility (mg/mL) in Excipient: Sesame oil [1, 3]: >406 mg/mL

CCCCCCCC/C=C\CCCCCCCCCCCC(=O)Oc1ccc2c3c1O[C@H]1C(=O)CC[C@@]4(O)C(C2)N(CC2CC2)CC[C@]314 [Compound 22, (4aS,7aR,12bS)-3-(cyclopropylmethyl)-4a-hydroxy-7-oxo-2,3,4,4a,5,6,7,7a-octahydro-1H-4,12-methanobenzofuro[3,2-e]isoquinolin-9-yl (Z)-docos-13-enoate]
Approximate Solubility (mg/mL) in Excipient: Ethanol ([1]; Ethanol, heating temp. 60 °C, obs. temp. 40 °C): >397.7 mg/mL | Approximate Solubility (mg/mL) in Excipient: Sesame oil [1, 4]: >401.9 mg/mL

CCCCCCCCCCCCCCOC(=O)OCOc1ccc2c3c1O[C@H]1C(=O)CC[C@@]4(O)C(C2)N(CC2CC2)CC[C@]314 [Compound 27, (((4aS,7aR,12bS)-3-(cyclopropylmethyl)-4a-hydroxy-7-oxo-2,3,4,4a,5,6,7,7a-octahydro-1H-4,12-methanobenzofuro[3,2-e]isoquinolin-9-yl)oxy)methyl tetradecyl carbonate]
Approximate Solubility (mg/mL) in Excipient: Sesame oil [1, 5]: >399.2 mg/mL

C=C1CC[C@@]2(O)C3Cc4ccc(OC(=O)OCCCCCCCCCCCCCCCCCCCC)c5c4[C@@]2(CCN3CC2CC2)[C@H]1O5 [Compound 28, (4aS,7aS,12bS)-3-(cyclopropylmethyl)-4a-hydroxy-7-methylene-2,3,4,4a,5,6,7,7a-octahydro-1H-4,12-methanobenzofuro[3,2-e]isoquinolin-9-yl icosyl carbonate]
Approximate Solubility (mg/mL) in Excipient: Sesame oil [1, 5]: <50.6 mg/mL

C=C1CC[C@@]2(O)C3Cc4ccc(OC(=O)OCCCCCCCCCCCCCCCCCC)c5c4[C@@]2(CCN3CC2CC2)[C@H]1O5 [Compound 33, (4aS,7aS,12bS)-3-(cyclopropylmethyl)-4a-hydroxy-7-methylene-2,3,4,4a,5,6,7,7a-octahydro-1H-4,12-methanobenzofuro[3,2-e]isoquinolin-9-yl octadecyl carbonate]
Approximate Solubility (mg/mL) in Excipient: Sesame oil [1, 5]: <51 mg/mL

C=C1CC[C@@]2(O)C3Cc4ccc(OC(=O)CCC5CCCC5)c5c4[C@@]2(CCN3CC2CC2)[C@H]1O5 [Compound 39, (4aS,7aS,12bS)-3-(cyclopropylmethyl)-4a-hydroxy-7-methylene-2,3,4,4a,5,6,7,7a-octahydro-1H-4,12-methanobenzofuro[3,2-e]isoquinolin-9-yl 3-cyclopentylpropanoate]
Approximate Solubility (mg/mL) in Excipient: Sesame oil [1, 5]: 106 to 141 mg/mL

CC(C)(C)CC(=O)Oc1ccc2c3c1O[C@H]1C(=O)CC[C@@]4(O)C(C2)N(CC2CC2)CC[C@]314 [Compound 42, (4aS,7aR,12bS)-3-(cyclopropylmethyl)-4a-hydroxy-7-oxo-2,3,4,4a,5,6,7,7a-octahydro-1H-4,12-methanobenzofuro[3,2-e]isoquinolin-9-yl 3,3-dimethylbutanoate]
Approximate Solubility (mg/mL) in Excipient: Sesame oil [1, 3]: <52 mg/mL | Approximate Solubility (mg/mL) in Excipient: Sesame oil [1, 4]: <25.8 mg/mL

CCCCCCCCCCCCCCCCCCCCCC(=O)Oc1ccc2c3c1O[C@H]1C(=O)CC[C@@]4(O)C(C2)N(CC2CC2)CC[C@]314 [Compound 51, (4aS,7aR,12bS)-3-(cyclopropylmethyl)-4a-hydroxy-7-oxo-2,3,4,4a,5,6,7,7a-octahydro-1H-4,12-methanobenzofuro[3,2-e]isoquinolin-9-yl docosanoate]
% remaining at time point in minutes, 0 min [2]: 100% | % remaining at time point in minutes, 15 min [2]: 107.4% | % remaining at time point in minutes, 120 min [2]: 105.3% | % remaining at time point in minutes, 480 min [2]: 88.2% | % remaining at time point in minutes, 1440 min [2]: 92.7%

Enalapril maleate salt [reference compound]
% remaining at time point in minutes, 0 min [2]: 100% | % remaining at time point in minutes, 15 min [2]: 44% | % remaining at time point in minutes, 120 min [2]: 2.9% | % remaining at time point in minutes, 480 min [2]: 8.2% | % remaining at time point in minutes, 1440 min [2]: 4.8%
